Where two headings read alike, the source gives them in different places.
Tested on: SARS-CoV-2 South African variant
Type: in vivo, LVG Golden Syrian male hamsters

With `CCNC(=O)NS(=O)(=O)c1sc(CC(C)C)cc1-c1ccc(Cn2c(-c3ccccc3)nc(OC)c2C=O)cc1` [AVE0991, N-(Ethylcarbamoyl)-3-(4-((5-formyl-4-methoxy-2-phenyl-1H-imidazol-1-YL)methyl)phenyl)-5-isobutylthiophene-2-sulfonamide] the “daily body weights expressed as the percentage of starting body weight” value (hamster, in vivo) was “continued to gain weight through the entire course of infection”.
For “Asp-Arg-Val-Tyr-Ile-His-Pro (DRVYIHP; printed: Asp-Arg-Val-Tyr-Ile-His-Pro) [angiotensin 1-7]”, the “daily body weights expressed as the percentage of starting body weight” value (pump implant delivering angiotensin 1-7 at 12 mg/kg/day, started the day after inoculation with 500,000 PFU, n=3) was “continued to gain weight through the entire course of infection”.

From patent US20250082716A1, “REPRESSED ANG 1-7 IN COVID-19 IS INVERSELY ASSOCIATED WITH INFLAMMATION AND COAGULATION” (priority 2021, published 2025)
